Test results from patent publication US20210221848A1, “POLYMYXIN DERIVATIVES AND THEIR USE IN COMBINATION THERAPY TOGETHER WITH DIFFERENT ANTIBIOTICS” (priority 2014, published 2021).
Like-named read-outs stand apart in the source and are kept apart here.

Legend:
[1] = absence of a second agent, Table 6B

Substance | MIC, A. baumannii ATCC BAA-747 (A. baumannii; sole activity, Table 6C) | MIC, A. baumannii NCTC 13424 (A. baumannii; sole activity, Table 6C) | MIC, E. coli ATCC 25922 (E. coli; sole activity, Table 6C) | MIC, K. pneumoniae ATCC 4352 (K. pneumoniae; sole activity, Table 6C) | MIC, P. aeruginosa ATCC 27853 (P. aeruginosa; sole activity, Table 6C) | MIC, P. aeruginosa CCUG 59347 (P. aeruginosa; sole activity, Table 6C) | MIC, E. coli NCTC 13441 (E. coli; sole activity, Table 6C) | MIC, K. pneumoniae ATCC BAA-2146 (K. pneumoniae; sole activity, Table 6C) | MIC, A. baumannii ATCC BAA-747 (A. baumannii; [1]) | MIC, A. baumannii NCTC 13424 (A. baumannii; [1]) | MIC, E. coli ATCC 25922 (E. coli; [1]) | MIC, E. coli NCTC 13441 (E. coli; [1]) | MIC, K. pneumoniae ATCC 4352 (K. pneumoniae; [1]) | MIC, K. pneumoniae ATCC BAA-2146 (K. pneumoniae; [1]) | MIC, P. aeruginosa ATCC 27853 (P. aeruginosa; [1]) | MIC, P. aeruginosa CCUG 59347 (P. aeruginosa; [1])
6- isobutylpiperazine- 2-carbonyl L- Thr-L-Dap- polymyxin B heptapeptide [Example D80] | 0.5 micrograms/mL | 0.5 micrograms/mL | 0.5 micrograms/mL | 0.25 micrograms/mL | 0.5 micrograms/mL | 0.5 micrograms/mL | – | – | – | – | – | – | – | – | – | –
(S)-1-((2,3- dihydrobenzo[b][1,4] dioxin-6- yl)methyl)piperazine- 2-carbonyl polymyxin B nonapeptide [Example D58] | 1 micrograms/mL | 0.5 micrograms/mL | 0.25 micrograms/mL | 0.25 micrograms/mL | 0.5 micrograms/mL | 1 micrograms/mL | 0.25 micrograms/mL | 0.25 micrograms/mL | – | – | – | – | – | – | – | –
(S)-1-((6-oxo-1- phenyl-1,6- dihydropyridin-3- yl)methyl)piperazine- 2-carbonyl Polymyxin B nonapeptide [Example D60] | 4 micrograms/mL | 2 micrograms/mL | 0.25 micrograms/mL | 0.25 micrograms/mL | 1 micrograms/mL | 2 micrograms/mL | 0.5 micrograms/mL | 0.5 micrograms/mL | – | – | – | – | – | – | – | –
(S)-3-amino-2- (benzylamino)pro- panoyl Polymyxin B nonapeptide [Example D59] | 2 micrograms/mL | 1 micrograms/mL | 0.5 micrograms/mL | 0.5 micrograms/mL | 0.5 micrograms/mL | 1 micrograms/mL | 0.5 micrograms/mL | 0.5 micrograms/mL | – | – | – | – | – | – | – | –
(S)-3-amino-2- (benzyloxy)propan- oyl Polymyxin B nonapeptide [Example D61] | 2 micrograms/mL | 1 micrograms/mL | 0.5 micrograms/mL | 0.25 micrograms/mL | 0.5 micrograms/mL | 1 micrograms/mL | 0.5 micrograms/mL | 0.25 micrograms/mL | – | – | – | – | – | – | – | –
(S)-4-amino-2- (benzyloxy)butan- oyl Polymyxin B nonapeptide [Example D54] | 1 micrograms/mL | 4 micrograms/mL | 0.25 micrograms/mL | 0.125 micrograms/mL | 0.5 micrograms/mL | 1 micrograms/mL | 0.5 micrograms/mL | 0.25 micrograms/mL | – | – | – | – | – | – | – | –
(cis-5- cyclohexylpiperidine)- 3-carbonyl L-Thr-L- Dap-polymyxin B heptapeptide [Example D43] | – | – | – | – | – | – | – | – | 4 micrograms/mL | 4 micrograms/mL | 2 micrograms/mL | 4 micrograms/mL | 2 micrograms/mL | 4 micrograms/mL | 1 micrograms/mL | 2 micrograms/mL
(cis-5-(2-methylpropyl) piperidine)-3-carbonyl polymyxin B nonapeptide [Example D47] | – | – | – | – | – | – | – | – | >8 micrograms/mL | >8 micrograms/mL | 4 micrograms/mL | 8 micrograms/mL | 4 micrograms/mL | 8 micrograms/mL | 2 micrograms/mL | >8 micrograms/mL
